Here are results for 20 compounds from patent US8217029B2, “Oxazolidinone antibiotics” (Actelion Pharmaceuticals Ltd, priority 2007, dated 2012).

The experiment concerns S aureus A798. The experiment is described as follows: Minimal inhibitory concentration (MIC), microdilution method in cation-adjusted Mueller-Hinton Broth following NCCLS guidelines. The class given is cell-based. The conditions noted are these: pH of test medium 7.2-7.3. An outline of the steps:
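MICs (mg/l) came from NCCLS-guided microdilution, using cation-adjusted Mueller-Hinton medium adjusted to pH 7.2-7.3.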
(Broth dilution looks for growth in wells or tubes with falling amounts of substance.)

Values after ≈ are worked out from the molar mass of the structure shown. Bounds are passed on as bounds.

For orientation: MIC means the lowest concentration found to suppress growth. Lower therefore signals inhibition by little substance. On to `COc1ccc2nccc(N3CCCN(C(=O)[C@@H]4CN(c5ccc6c(c5)OCCO6)C(=O)O4)CC3)c2n1` [Example 109, (S)-3-(2,3-Dihydro-benzo[1,4]dioxin-6-yl)-5-[4-(6-methoxy-[1,5]naphthyridin-4-yl)-[1,4]diazepane-1-carbonyl]-oxazolidin-2-one], for which the minimum inhibitory concentration (MIC) is no more than 0.031 µg/mL.

Compound `COc1ccc2nccc(N3CC[C@H](N(C)C[C@@H]4CN(c5ccc6c(c5)OCCO6)C(=O)O4)C3)c2n1` [Example 112, (R)-3-(2,3-Dihydro-benzo[1,4]dioxin-6-yl)-5-({[(S)-1-(6-methoxy-[1,5]naphthyridin-4-yl)-pyrrolidin-3-yl]-methyl-amino}-methyl)-oxazolidin-2-one] showed a minimum inhibitory concentration (MIC) of no more than 0.031 µg/mL.

Turning to `COc1ccc2nccc(N3CCN(C(=O)C[C@@H]4CN(c5ccc6c(c5)NC(=O)CS6)C(=O)O4)CC3)c2n1` [Example 114, 6-((R)-5-{2-[4-(6-Methoxy-[1,5]naphthyridin-4-yl)-piperazin-1-yl]-2-oxo-ethyl}-2-oxo-oxazolidin-3-yl)-4H-benzo[1,4]thiazin-3-one], the MIC was no more than 0.031 µg/mL.

As for `COc1ccc2nccc(N3CC(NC(=O)C[C@@H]4CN(c5ccc6c(c5)NC(=O)CS6)C(=O)O4)C3)c2n1` [Example 115, N-[1-(6-Methoxy-[1,5]naphthyridin-4-yl)-azetidin-3-yl]-2-[(R)-2-oxo-3-(3-oxo-3,4-dihydro-2H-benzo[1,4]thiazin-6-yl)-oxazolidin-5-yl]-acetamide], the minimum inhibitory concentration (MIC) worked out at 1 µg/mL (≈ 1.92 µM).

Regarding `COc1ccc2nccc(N3CC(NC(=O)[C@@H]4CN(c5ccc6c(c5)OCCO6)C(=O)O4)C3)c2n1` [Example 116, (S)-3-(2,3-Dihydro-benzo[1,4]dioxin-6-yl)-2-oxo-oxazolidine-5-carboxylic acid[1-(6-methoxy-[1,5]naphthyridin-4-yl)-azetidin-3-yl]-amide], the “MIC S aureus A798” value is “<=0.031 mg/l”.

For `COc1ccc2nccc(N3CC(CN(C)C[C@H]4CN(c5ccc6c(c5)OCCO6)C(=O)O4)C3)c2n1` [Example 118, (S)-3-(2,3-Dihydro-benzo[1,4]dioxin-6-yl)-5-({[1-(6-methoxy-[1,5]naphthyridin-4-yl)-azetidin-3-ylmethyl]-methyl-amino}-methyl)-oxazolidin-2-one], 0.25 µg/mL (≈ 0.509 µM) was the least that counted as inhibitory (MIC).

In turn, `COc1ccc2nccc(N3CCC(NC[C@@H]4CN(c5ccc6c(c5)NC(=O)CS6)C(=O)O4)CC3)c2n1` [Example 119, 6-((R)-5-{[1-(6-Methoxy-[1,5]naphthyridin-4-yl)-piperidin-4-ylamino]-methyl}-2-oxo-oxazolidin-3-yl)-4H-benzo[1,4]thiazin-3-one] displayed an MIC of no more than 0.031 µg/mL.

`COc1ccc2nccc(N3CCC(NC[C@@H]4CN(c5ccc6c(c5)NC(=O)CO6)C(=O)O4)CC3)c2n1` [Example 120, 6-((R)-5-{[1-(6-Methoxy-[1,5]naphthyridin-4-yl)-piperidin-4-ylamino]-methyl}-2-oxo-oxazolidin-3-yl)-4H-benzo[1,4]oxazin-3-one] displayed an MIC of no more than 0.031 µg/mL.

Take `COc1ccc2nccc(N3CCC(NC[C@@H]4CN(c5ccc(C)c(F)c5)C(=O)O4)CC3)c2n1` [Example 121, (R)-3-(3-Fluoro-4-methyl-phenyl)-5-{[1-(6-methoxy-[1,5]naphthyridin-4-yl)-piperidin-4-ylamino]-methyl}-oxazolidin-2-one]: the MIC was no more than 0.031 µg/mL.

Consider `COc1ccc2ncc(F)c(N3CCC(NC[C@@H]4CN(c5ccc6c(c5)NC(=O)CS6)C(=O)O4)CC3)c2n1` [Example 122, 6-((R)-5-{[1-(3-Fluoro-6-methoxy-[1,5]naphthyridin-4-yl)-piperidin-4-ylamino]-methyl}-2-oxo-oxazolidin-3-yl)-4H-benzo[1,4]thiazin-3-one], for which the MIC is no more than 0.031 µg/mL.

As for `COc1ccc2ncc(F)c(N3CCC(NC[C@@H]4CN(c5ccc6c(c5)NC(=O)CO6)C(=O)O4)CC3)c2n1` [Example 123, 6-((R)-5-{[1-(3-Fluoro-6-methoxy-[1,5]naphthyridin-4-yl)-piperidin-4-ylamino]-methyl}-2-oxo-oxazolidin-3-yl)-4H-benzo[1,4]oxazin-3-one], the MIC was no more than 0.031 µg/mL.

Take `COc1ccc2ncc(F)c(N3CCC(N(C)C[C@@H]4CN(c5ccc6c(c5)NC(=O)CS6)C(=O)O4)CC3)c2n1` [Example 124, 6-[(R)-5-({[1-(3-Fluoro-6-methoxy-[1,5]naphthyridin-4-yl)-piperidin-4-yl]-methyl-amino}-methyl)-2-oxo-oxazolidin-3-yl]-4H-benzo[1,4]thiazin-3-one]: the MIC is no more than 0.031 µg/mL.

`COc1ccc2nccc(C3(O)CCN(C[C@@H]4CN(c5ccc6c(c5)NC(=O)CS6)C(=O)O4)CC3)c2c1` [Example 125, 6-{(R)-5-[4-Hydroxy-4-(6-methoxy-quinolin-4-yl)-piperidin-1-ylmethyl]-2-oxo-oxazolidin-3-yl}-4H-benzo[1,4]thiazin-3-one] had an MIC of no more than 0.031 µg/mL.

Turning to `COc1ccc2ncc(F)c(C3(O)CCN(C[C@@H]4CN(c5ccc6c(c5)NC(=O)CS6)C(=O)O4)CC3)c2n1` [Example 126, 6-{(R)-5-[4-(3-Fluoro-6-methoxy-[1,5]naphthyridin-4-yl)-4-hydroxy-piperidin-1-ylmethyl]-2-oxo-oxazolidin-3-yl}-4H-benzo[1,4]thiazin-3-one], the MIC was no more than 0.031 µg/mL.

Take `COc1ccc2ncc(F)c(N3CC(N(C)C[C@@H]4CN(c5ccc6c(c5)NC(=O)CO6)C(=O)O4)C3)c2n1` [Example 127, 6-[(R)-5-({[1-(3-Fluoro-6-methoxy-[1,5]naphthyridin-4-yl)-azetidin-3-yl]-methyl-amino}-methyl)-2-oxo-oxazolidin-3-yl]-4H-benzo[1,4]oxazin-3-one]: the MIC is no more than 0.031 µg/mL.

For the compound `COc1ccc2nccc(N3CC(N(CCO)C[C@@H]4CN(c5ccc6c(c5)NC(=O)CS6)C(=O)O4)C3)c2n1` [Example 128, 6-[(R)-5-({(2-Hydroxy-ethyl)-[1-(6-methoxy-[1,5]naphthyridin-4-yl)-azetidin-3-yl]-amino}-methyl)-2-oxo-oxazolidin-3-yl]-4H-benzo[1,4]thiazin-3-one], the MIC was no more than 0.031 µg/mL.

With `COc1ccc2nccc(N3CC(CNC(=O)[C@@H]4CN(c5ccc(C)c(F)c5)C(=O)O4)C3)c2n1` [Example 130, (S)-3-(3-Fluoro-4-methyl-phenyl)-2-oxo-oxazolidine-5-carboxylic acid [1-(6-methoxy-[1,5]naphthyridin-4-yl)-azetidin-3-ylmethyl]-amide], 0.25 µg/mL (≈ 0.537 µM) was the least that counted as inhibitory (MIC).

Consider `COc1ccc2nc(C)cc(N3CC(NC[C@@H]4CN(c5ccc6c(c5)NC(=O)CS6)C(=O)O4)C3)c2c1` [Example 131, 6-((R)-5-{[1-(6-Methoxy-2-methyl-quinolin-4-yl)-azetidin-3-ylamino]-methyl}-2-oxo-oxazolidin-3-yl)-4H-benzo[1,4]thiazin-3-one], for which the minimal inhibitory concentration (MIC) was no more than 0.031 µg/mL.

`COc1ccc2nccc(C3(O)CCN(C[C@@H]4CN(c5ccc6c(c5)NC(=O)CO6)C(=O)O4)CC3)c2c1` [Example 132, 6-{(R)-5-[4-Hydroxy-4-(6-methoxy-quinolin-4-yl)-piperidin-1-ylmethyl]-2-oxo-oxazolidin-3-yl}-4H-benzo[1,4]oxazin-3-one]: 0.063 µg/mL (≈ 0.125 µM) was the least that counted as inhibitory (MIC).

In turn, `COc1ccc2nccc(N3CC(N(C)C[C@@H]4CN(c5ccccc5)C(=O)O4)C3)c2n1` [Example 133, (R)-5-({[1-(6-Methoxy-[1,5]naphthyridin-4-yl)-azetidin-3-yl]-methyl-amino}-methyl)-3-phenyl-oxazolidin-2-one] yielded a minimum inhibitory concentration (MIC) of 2 µg/mL (≈ 4.77 µM).
